Reference: ChEMBL document CHEMBL1909046, “DrugMatrix in vitro pharmacology data”

Experiments:
Estrogen receptor beta = Estrogen receptor beta (Homo sapiens, UniProt Q92731); conditions: sf9; also: in other assays of this panel Not Active means under 50% inhibition at 10 µM
Glucocorticoid receptor = target: T1, Glucocorticoid receptor (Homo sapiens, UniProt P04150); conditions: hela s3; also: in other assays of this panel Not Active means under 50% inhibition at 10 µM
T1 sequence (P04150 whole entry): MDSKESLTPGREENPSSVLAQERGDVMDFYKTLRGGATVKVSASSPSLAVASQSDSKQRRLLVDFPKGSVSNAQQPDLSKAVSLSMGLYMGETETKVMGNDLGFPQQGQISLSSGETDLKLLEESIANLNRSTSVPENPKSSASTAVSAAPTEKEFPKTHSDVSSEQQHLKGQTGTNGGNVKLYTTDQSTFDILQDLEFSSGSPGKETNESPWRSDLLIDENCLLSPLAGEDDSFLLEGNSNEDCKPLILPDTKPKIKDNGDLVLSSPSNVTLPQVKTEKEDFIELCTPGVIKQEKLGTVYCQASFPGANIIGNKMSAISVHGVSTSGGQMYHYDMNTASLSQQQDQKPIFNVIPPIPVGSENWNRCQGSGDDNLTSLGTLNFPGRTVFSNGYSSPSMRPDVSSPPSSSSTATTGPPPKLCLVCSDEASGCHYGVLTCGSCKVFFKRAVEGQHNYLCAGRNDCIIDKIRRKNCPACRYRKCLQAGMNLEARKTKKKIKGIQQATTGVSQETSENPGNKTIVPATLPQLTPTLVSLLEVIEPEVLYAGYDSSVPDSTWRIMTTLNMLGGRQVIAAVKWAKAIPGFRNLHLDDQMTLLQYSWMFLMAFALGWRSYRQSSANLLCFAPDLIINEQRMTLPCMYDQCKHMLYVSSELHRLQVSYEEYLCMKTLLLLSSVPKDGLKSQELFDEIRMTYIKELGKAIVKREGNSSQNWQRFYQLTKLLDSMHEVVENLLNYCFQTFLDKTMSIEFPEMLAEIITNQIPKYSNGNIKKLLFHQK

[1] = target: Sodium-dependent noradrenaline transporter (Homo sapiens, UniProt P23975); assay: DRUGMATRIX: Norepinephrine Transporter radioligand binding (ligand: [125I] RTI-55); format: cell membranes, MDCK, Membrane; conditions: mdck; Not Active = under 50% inhibition at 10 µM
Sodium-dependent noradrenaline transporter, sequence (P23975 whole entry): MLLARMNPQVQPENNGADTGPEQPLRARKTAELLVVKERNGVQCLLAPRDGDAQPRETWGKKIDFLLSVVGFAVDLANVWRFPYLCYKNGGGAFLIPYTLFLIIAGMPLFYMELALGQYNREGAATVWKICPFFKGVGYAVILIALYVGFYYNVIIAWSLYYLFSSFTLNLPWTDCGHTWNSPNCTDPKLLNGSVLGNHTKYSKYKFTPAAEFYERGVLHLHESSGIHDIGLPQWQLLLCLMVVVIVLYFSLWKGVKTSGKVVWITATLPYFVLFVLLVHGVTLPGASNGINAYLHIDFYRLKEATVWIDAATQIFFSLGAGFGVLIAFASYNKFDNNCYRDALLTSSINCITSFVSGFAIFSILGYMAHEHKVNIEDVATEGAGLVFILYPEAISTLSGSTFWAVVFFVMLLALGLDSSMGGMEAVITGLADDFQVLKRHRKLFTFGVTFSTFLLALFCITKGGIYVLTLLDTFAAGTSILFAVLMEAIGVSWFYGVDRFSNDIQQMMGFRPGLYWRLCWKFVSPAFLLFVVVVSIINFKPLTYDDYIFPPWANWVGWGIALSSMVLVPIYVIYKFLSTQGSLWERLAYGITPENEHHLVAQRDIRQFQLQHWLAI

[2] = target: Voltage-gated inwardly rectifying potassium channel KCNH2 (Homo sapiens, UniProt Q12809); conditions: hek293; also: in other assays of this panel Not Active means under 50% inhibition at 10 µM
Voltage-gated inwardly rectifying potassium channel KCNH2, sequence (Q12809 whole entry): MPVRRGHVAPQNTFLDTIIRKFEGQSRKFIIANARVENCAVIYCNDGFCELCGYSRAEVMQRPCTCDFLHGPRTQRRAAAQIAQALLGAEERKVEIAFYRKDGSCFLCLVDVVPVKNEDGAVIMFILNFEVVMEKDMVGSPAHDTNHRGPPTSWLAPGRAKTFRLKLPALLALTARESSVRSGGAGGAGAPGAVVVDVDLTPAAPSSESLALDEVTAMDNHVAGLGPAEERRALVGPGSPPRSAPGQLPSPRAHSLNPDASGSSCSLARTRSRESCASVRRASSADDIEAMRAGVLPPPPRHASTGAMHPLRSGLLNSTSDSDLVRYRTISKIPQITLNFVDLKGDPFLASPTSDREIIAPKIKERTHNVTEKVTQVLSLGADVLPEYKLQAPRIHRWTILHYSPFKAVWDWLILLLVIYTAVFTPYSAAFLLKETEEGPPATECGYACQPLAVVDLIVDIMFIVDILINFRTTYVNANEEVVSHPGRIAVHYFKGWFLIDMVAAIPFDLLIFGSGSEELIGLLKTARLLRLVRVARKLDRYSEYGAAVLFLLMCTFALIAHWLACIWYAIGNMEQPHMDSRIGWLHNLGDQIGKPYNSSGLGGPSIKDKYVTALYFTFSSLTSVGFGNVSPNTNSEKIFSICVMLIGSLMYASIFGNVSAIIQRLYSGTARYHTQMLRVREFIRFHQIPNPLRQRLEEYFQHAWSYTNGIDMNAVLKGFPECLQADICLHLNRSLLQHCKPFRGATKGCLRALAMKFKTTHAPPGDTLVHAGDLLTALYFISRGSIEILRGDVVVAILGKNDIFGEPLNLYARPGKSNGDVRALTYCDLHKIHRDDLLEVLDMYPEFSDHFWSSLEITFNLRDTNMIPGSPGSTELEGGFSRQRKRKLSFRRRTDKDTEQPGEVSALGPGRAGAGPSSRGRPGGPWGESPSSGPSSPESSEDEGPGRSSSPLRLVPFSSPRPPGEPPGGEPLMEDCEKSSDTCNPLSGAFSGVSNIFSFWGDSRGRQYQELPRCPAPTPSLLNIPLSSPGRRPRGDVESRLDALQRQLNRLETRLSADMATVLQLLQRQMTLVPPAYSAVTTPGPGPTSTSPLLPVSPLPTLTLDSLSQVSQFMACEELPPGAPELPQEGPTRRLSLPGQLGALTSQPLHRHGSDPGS

Cytochrome P450 3A4 = Cytochrome P450 3A4 (Homo sapiens, UniProt P08684); conditions: bti-tn-5b1-4; also: in other assays of this panel Not Active means under 50% inhibition at 10 µM
Cytochrome P450 3A4, sequence (P08684 whole entry): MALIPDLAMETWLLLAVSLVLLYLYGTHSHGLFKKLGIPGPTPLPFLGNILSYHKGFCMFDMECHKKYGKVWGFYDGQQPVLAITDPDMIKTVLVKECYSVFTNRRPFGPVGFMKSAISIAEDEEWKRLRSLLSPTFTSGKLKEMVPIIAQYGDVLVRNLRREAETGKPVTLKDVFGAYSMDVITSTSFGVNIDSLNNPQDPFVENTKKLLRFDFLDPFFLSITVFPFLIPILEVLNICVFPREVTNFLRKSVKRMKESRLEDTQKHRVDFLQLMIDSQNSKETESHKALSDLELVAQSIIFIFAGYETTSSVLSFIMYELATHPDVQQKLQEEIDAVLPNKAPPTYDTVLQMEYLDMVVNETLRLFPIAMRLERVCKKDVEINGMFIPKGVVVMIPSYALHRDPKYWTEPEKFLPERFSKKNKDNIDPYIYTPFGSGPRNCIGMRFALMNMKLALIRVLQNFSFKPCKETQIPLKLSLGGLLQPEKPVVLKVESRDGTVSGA

Estrogen receptor beta, sequence (Q92731 whole entry): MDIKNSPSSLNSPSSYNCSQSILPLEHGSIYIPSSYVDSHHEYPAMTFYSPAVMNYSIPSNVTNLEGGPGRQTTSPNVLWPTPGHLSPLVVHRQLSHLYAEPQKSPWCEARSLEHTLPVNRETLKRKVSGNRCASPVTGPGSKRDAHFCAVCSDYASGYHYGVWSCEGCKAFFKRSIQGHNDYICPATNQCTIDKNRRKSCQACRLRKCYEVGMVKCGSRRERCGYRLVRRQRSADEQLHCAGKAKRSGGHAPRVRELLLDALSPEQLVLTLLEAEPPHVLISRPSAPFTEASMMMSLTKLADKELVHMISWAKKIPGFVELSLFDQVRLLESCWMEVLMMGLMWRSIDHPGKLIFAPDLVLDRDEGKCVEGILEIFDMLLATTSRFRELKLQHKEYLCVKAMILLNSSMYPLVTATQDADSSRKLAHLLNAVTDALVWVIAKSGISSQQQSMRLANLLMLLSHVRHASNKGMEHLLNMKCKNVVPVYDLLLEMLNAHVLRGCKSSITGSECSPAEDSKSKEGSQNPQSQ

Cc1cc(NS(=O)(=O)c2ccc(N)cc2)no1 [SULFAMETHOXAZOLE]
Not Active: IC50 (Estrogen receptor beta) | IC50 (Glucocorticoid receptor) | IC50 [1]

CN[C@@H]1[C@@H](O)[C@@H](O[C@@H]2[C@@H](O)[C@H](O[C@H]3OC(CN)=CC[C@H]3N)[C@@H](N)C[C@H]2N)OC[C@]1(C)O [SISOMICIN]
Not Active: IC50 [2] | Ki [2] | IC50 (Glucocorticoid receptor) | IC50 [1]

CC(C)(C)NC(=O)[C@@H]1CN(Cc2cccnc2)CCN1C[C@@H](O)C[C@@H](Cc1ccccc1)C(=O)N[C@H]1c2ccccc2C[C@H]1O.O
Not Active: IC50 [2] | Ki [2] | IC50 [1]

COc1cc(C(=O)NC2CCCNC2)cc(OC)c1OC (stereo not drawn) [TROXIPIDE]
Not Active: IC50 (Cytochrome P450 3A4) | Ki (Cytochrome P450 3A4) | IC50 [2] | Ki [2] | IC50 (Estrogen receptor beta) | IC50 (Glucocorticoid receptor) | IC50 [1]

CC(C)(C)NCC(O)c1ccc(O)c(CO)c1 (stereo not drawn) [ALBUTEROL]
Not Active: IC50 (Cytochrome P450 3A4) | Ki (Cytochrome P450 3A4) | IC50 [2] | Ki [2] | IC50 (Estrogen receptor beta) | IC50 (Glucocorticoid receptor) | IC50 [1]

CC1(C)[C@H]2CC[C@]1(C)C(=O)C2 [(-)-CAMPHOR]
Not Active: IC50 (Cytochrome P450 3A4) | Ki (Cytochrome P450 3A4) | IC50 [2] | Ki [2] | IC50 (Estrogen receptor beta) | IC50 (Glucocorticoid receptor) | IC50 [1]

CC[C@H]1OC(=O)[C@H](C)[C@@H](O[C@H]2C[C@@](C)(OC)[C@@H](O)[C@H](C)O2)[C@H](C)[C@@H](O[C@@H]2O[C@H](C)C[C@H](N(C)C)[C@H]2O)[C@](C)(O)C[C@@H](C)/C(=N\OCOCCOC)[C@H](C)[C@@H](O)[C@]1(C)O [ROXITHROMYCIN]
Not Active: IC50 (Cytochrome P450 3A4) | Ki (Cytochrome P450 3A4) | IC50 [2] | Ki [2] | IC50 (Glucocorticoid receptor) | IC50 [1]

CCOC(=O)[C@H](CCc1ccccc1)N[C@@H](C)C(=O)N1[C@H](C(=O)O)C[C@@H]2CCC[C@@H]21
Not Active: IC50 [2] | Ki [2] | IC50 (Estrogen receptor beta) | IC50 (Glucocorticoid receptor) | IC50 [1]

NCCCC[C@H](N[C@@H](CCc1ccccc1)C(=O)O)C(=O)N1CCC[C@H]1C(=O)O [LISINOPRIL ANHYDROUS]
Not Active: IC50 (Glucocorticoid receptor) | IC50 [1]

Cc1ccc(C(=O)C(C)CN2CCCCC2)cc1 (stereo not drawn) [TOLPERISONE]
Not Active: IC50 (Cytochrome P450 3A4) | Ki (Cytochrome P450 3A4) | IC50 [2] | Ki [2] | IC50 (Estrogen receptor beta) | IC50 [1]

NC(=O)c1ncn([C@@H]2O[C@H](CO)[C@@H](O)[C@H]2O)n1 [RIBAVIRIN]
Not Active: IC50 (Cytochrome P450 3A4) | Ki (Cytochrome P450 3A4) | IC50 [2] | Ki [2] | IC50 (Glucocorticoid receptor) | IC50 [1]

Nc1nnc(-c2cccc(Cl)c2Cl)c(N)n1 [LAMOTRIGINE]
Not Active: IC50 (Estrogen receptor beta)

O=C(CCCN1CCC(O)(c2ccc(Cl)cc2)CC1)c1ccc(F)cc1 [HALOPERIDOL]
Not Active: IC50 (Cytochrome P450 3A4) | Ki (Cytochrome P450 3A4) | IC50 [2] | Ki [2] | IC50 (Estrogen receptor beta) | IC50 (Glucocorticoid receptor)

COC(=O)C1=C(C)NC(C)=C(C(=O)OC)C1c1ccccc1[N+](=O)[O-] [NIFEDIPINE]
Not Active: IC50 (Estrogen receptor beta) | IC50 (Glucocorticoid receptor) | IC50 [1]

Nc1ccc(S(N)(=O)=O)cc1 [SULFANILAMIDE]
Not Active: IC50 (Estrogen receptor beta) | IC50 (Glucocorticoid receptor) | IC50 [1]

COS(C)(=O)=O [METHANESULFONIC ACID METHYL ESTER]
Not Active: IC50 (Cytochrome P450 3A4) | Ki (Cytochrome P450 3A4) | IC50 [2] | Ki [2] | IC50 (Glucocorticoid receptor) | IC50 [1]

CN1[C@@H]2CC[C@H]1C[C@@H](OC(=O)c1c[nH]c3ccccc13)C2 [TROPISETRON]
Not Active: IC50 (Cytochrome P450 3A4) | Ki (Cytochrome P450 3A4) | IC50 [2] | Ki [2] | IC50 (Estrogen receptor beta) | IC50 [1]

COC(=O)c1ccc(O)cc1 [METHYLPARABEN]
Not Active: IC50 (Cytochrome P450 3A4) | Ki (Cytochrome P450 3A4) | IC50 [2] | Ki [2] | IC50 (Estrogen receptor beta) | IC50 (Glucocorticoid receptor)

C[C@](N)(Cc1ccc(O)cc1)C(=O)O [METYROSINE]
Not Active: IC50 (Cytochrome P450 3A4) | Ki (Cytochrome P450 3A4) | IC50 [2] | Ki [2] | IC50 (Glucocorticoid receptor) | IC50 [1]

CC(C)(C)NCC(O)c1cc(O)cc(O)c1 (stereo not drawn) [TERBUTALINE]
Not Active: IC50 (Cytochrome P450 3A4) | Ki (Cytochrome P450 3A4) | IC50 [2] | Ki [2] | IC50 [1]

CC(=O)[C@H]1CC[C@H]2[C@@H]3CCC4=CC(=O)CC[C@]4(C)[C@H]3CC[C@]12C [PROGESTERONE]
Not Active: IC50 (Cytochrome P450 3A4) | Ki (Cytochrome P450 3A4) | IC50 (Estrogen receptor beta) | IC50 [1]

NC(CO)(CO)CO [TROMETHAMINE]
Not Active: IC50 (Cytochrome P450 3A4) | Ki (Cytochrome P450 3A4) | IC50 [2] | Ki [2] | IC50 (Glucocorticoid receptor) | IC50 [1]

CC1=C(/C=C/C(C)=C/C=C/C(C)=C\C(=O)O)C(C)(C)CCC1 [ISOTRETINOIN]
Not Active: IC50 (Cytochrome P450 3A4) | Ki (Cytochrome P450 3A4) | IC50 (Glucocorticoid receptor) | IC50 [1]

COC(=O)[C@@H]1[C@H]2C[C@H]3c4[nH]c5ccccc5c4CCN3C[C@@H]2CC[C@@H]1O [YOHIMBINE]
Not Active: IC50 [2] | Ki [2] | IC50 (Estrogen receptor beta) | IC50 [1]

COc1ccc(CCN2CCC(Nc3nc4ccccc4n3Cc3ccc(F)cc3)CC2)cc1 [ASTEMIZOLE]
Not Active: IC50 (Cytochrome P450 3A4) | Ki (Cytochrome P450 3A4) | IC50 (Glucocorticoid receptor)

COc1ccc(C(CN(C)C)C2(O)CCCCC2)cc1 (stereo not drawn) [VENLAFAXINE]
Not Active: IC50 (Cytochrome P450 3A4) | Ki (Cytochrome P450 3A4) | IC50 [2] | Ki [2]

CN(C)CCCN1c2ccccc2CCc2ccc(Cl)cc21 [CLOMIPRAMINE]
Not Active: IC50 (Cytochrome P450 3A4) | Ki (Cytochrome P450 3A4) | IC50 [2] | Ki [2] | IC50 (Glucocorticoid receptor)
